From US11078496B2, “System for F-box hormone receptor regulated protein expression in mammalian cells” (ICAHN SCHOOL OF MEDICINE AT MOUNT SINAI, priority 2016, dated 2021)

Target: T1, AID^47-CHK1 (A-CHK1) (UniProt P93830+Q7XVM8)
T1 construct: (encoding NP_001052659); 47-amino acid segment that corresponds to amino acids 63-109 of A. thaliana IAA17; expressed in transfected cells; host or cells: CCE mESCs (lentiviral pRAIDRS)
Experiment: Auxin-dependent depletion of A-CHK1 in mESCs (western blot)
Format: cell-based, mouse
Procedure: FIG. 5A is a western blot analysis depicting endogenous CHK1 (*) and AID^47-CHK1 (A-CHK1, **) in four selected clones and in parental non-infected mESCs. […] serves as a loading control. Experiment was repeated three times for clones #1 and #2, and a representative blot is presented. In FIG. 5B, A-CHK1 #2 mESCs were treated with ethanol (“Con”) or auxin (“IAA”) for 1 day. Cells were then treated with the indicated concentrations of aphidicolin (“Aph”). Equal concentrations of DMSO were applied to all conditions. The next day, cells were stained with crystal violet and plates were scanned. […] In FIG. 5C, mESC clones were pretreated with […] aphidicolin for 1 day and were then treated with auxin for the indicated time periods. Left panel: mitotic index was calculated as the percentage of H3^pS10-positive cells with 4N DNA content, measured by flow cytometry. Right panel: dot plots for A-CHK1 #2 mESCs treated with auxin for 0 or 45 minutes. Mitotic cells are gated. FIG. 5D show bright-field microscope images of cells treated as in FIG. 5C. Images show synchronous cell rounding, a feature of late mitotic cells, 2 hours following auxin treatment in aphidicolin-treated A-CHK1 #2 cells. FIG. 5E is a western blot analysis of cells treated as in FIG. 5C. Tyr15 phosphorylation of CDK1 (“CDKlpY^15”) was detected using a phospho-specific antibody. β-Actin serves as a loading control. […] Error bars represent standard deviation of three technical replicates. […]
Cells were lysed in RIPA-B buffer (20 mM Na2HPO4 pH 7.4, 150 mM NaCl and 1% Triton X-100) supplemented with Protease Inhibitor Cocktail (Roche) for 30 minutes on ice with occasional vortexing, followed by 30 minutes centrifugation at 13,000 relative centrifugal force at 4° C. […] Luminescence was detected with X-ray films, which were scanned, or using the Bio-Rad ChemiDoc MP System. […] Quantification of protein level was performed using the ImageJ software (Schneider et al., “NIH Image to ImageJ: 25 Years of Image Analysis,” Nat. Methods 9:671-675 2012), which is hereby incorporated by reference in its entirety). […]

T1 sequence (Q7XVM8 whole entry, the tested form may be a part): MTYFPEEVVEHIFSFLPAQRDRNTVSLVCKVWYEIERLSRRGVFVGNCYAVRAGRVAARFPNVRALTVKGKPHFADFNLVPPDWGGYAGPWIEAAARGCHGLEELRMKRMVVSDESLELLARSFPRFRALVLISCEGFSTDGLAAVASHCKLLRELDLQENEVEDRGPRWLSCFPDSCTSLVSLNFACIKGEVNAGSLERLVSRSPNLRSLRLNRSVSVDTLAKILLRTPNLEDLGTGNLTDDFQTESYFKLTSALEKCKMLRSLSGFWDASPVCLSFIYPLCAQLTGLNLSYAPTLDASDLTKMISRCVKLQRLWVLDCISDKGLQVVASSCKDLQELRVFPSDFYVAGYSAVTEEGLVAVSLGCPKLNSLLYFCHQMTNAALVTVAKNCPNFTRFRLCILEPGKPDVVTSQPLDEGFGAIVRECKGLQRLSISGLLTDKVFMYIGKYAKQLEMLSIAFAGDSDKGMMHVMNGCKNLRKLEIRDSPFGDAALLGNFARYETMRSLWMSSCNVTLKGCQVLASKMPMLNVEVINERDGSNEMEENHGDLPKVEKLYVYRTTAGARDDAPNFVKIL
T1 sequence (P93830 63-109): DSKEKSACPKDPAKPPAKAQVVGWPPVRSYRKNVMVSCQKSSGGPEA

- time of auxin-dependent depletion of CHK1 (aphidicolin-treated mESCs): 20 min
- time for >95% degradation of CHK1 (pRAIDRS system, auxin-dependent protein depletion): 20 to 30 min
- auxin-dependent degradation of A-CHK1 (selected mESC clones, western blot): complete auxin-dependent degradation
Structure (SMILES): O=C(O)Cc1c[nH]c2ccccc12 [auxin, indole-3-acetic acid]
